Results: patent US20210221812A1, “MATRINE a-KETOAMINE COMPOUNDS, PREPARATION METHOD THEREFOR AND USE THEREOF” (SHANGHAI XINGYE PHARMACEUTICAL TECHNOLOGY CO., LTD, priority 2018, published 2021)

Key:
[1] = system: Panc-1 cells; test: MTT tumor cell growth inhibition, Panc-1; type: cell-based; conditions: Homo sapiens, 48 h, read-out: Tumors growth-inhibitory activity (IC50) Panc-1
Description: (§1) Using MTT method to determine the growth inhibition activity of the matrine compounds on Lovo, MGC-803, Mia-paca2, HpeG-2, A549, k562, and Panc-1 cells in vitro. Logarithmic growth phase of Lovo, MGC-803, Mia-paca2, HpeG-2, A549, k562, Panc-1 cells were inoculated into 96-well plates (purchased from Institute of Biochemical Cells, Chinese Academy of Sciences, and cultured according to conventional tumor cell culture methods) at a density of 4×10^4/mL and 180 μL/well; after the cells adhered to the wall, 20 μL of drug solution was added to each well and matined the final drug concentrations were 0.1 μM, 1 μM, 10 μM, 50 μM, 100 μM respectively. After 48 h, 5 mg/mL MTT solution was added (20 μL/well) and maintained in a CO2 incubator for 3-4 h. After that, discarding the supernatant carefully, and DMSO was added (200 μL/well) when the residual liquid was air-dried, and shook for 0.5-1 h until the residual crystals was dissolved. The absorbance OD was measured at 492 nm by a microplate reader. GraphPad Prism 5 software was used to calculate the IC50 value.

[2] = system: MGC-803 cells; test: MTT tumor cell growth inhibition, MGC-803; type: cell-based; conditions: Homo sapiens, 48 h, read-out: Tumors growth-inhibitory activity (IC50) MGC-803
Description: as §1

[3] = system: HpeG-2 cells; test: Anti-tumor activity of NK cells activated by compounds, HpeG-2 (CFSE/PI flow cytometry); type: cell-based; conditions: tumor cells treated with 20 μM compound 48 h, then mixed with NK cells 5:1 for 4 hours; CFSE+PI+ tumor cells; read-out: HpeG-2 inhibition rate (%)
Description: (§2) Logarithmic growth phase of Lovo, HpeG-2, A549, k562, Panc-1 cells were collected and seeded in a 6-well plate at a density of 5×10^5/mL and 2 mL/well separately. The experimental group was treated with 20 μM final drug concentration of GJDx compounds, and the control group was treated with an equal volume of RPMI1640 medium. The groups were cultured at 37° C., saturated humidity, 5% CO2 for 48 h. After that, the cells of each group were collected, centrifuged and the supernatant was removed and resuspended in PBS at a density of 1×10^6/mL. Then 2 μL of CFSE stock solution (final concentration was 10 μM) was added into the cell suspension per 1 mL and cultured at 37° C. with 5% CO2 for 30 min, and then added 5-10 times of the volume of 4° C. pre-chilled RPM 1640 complete medium, and incubated on ice for 5 minutes, discarded the supernatant by centrifugation at 4° C., and wash the cells with fresh medium for 3 times. After that, mixing the labeled tumor cells and NK cells (the NK cell culture medium was α-MEM contained 1.5 g/L sodium bicarbonate, 12.5% fetal bovine serum, and 12.5% horse serum) according to the ratio of 5:1, the mixture cells was collected and washed with flow buffer twice after incubated for 4 hours, then 50 μg/mL PI was added, and incubated at room temperature for 15 minutes in the dark, and finally testing the percentage of CFSE^+PI^+ tumor cells on the flow cytometer.

[4] = system: k562 cells; test: Anti-tumor activity of NK cells activated by compounds, k562 (CFSE/PI flow cytometry); type: cell-based; conditions: Homo sapiens, tumor cells treated with 20 μM compound 48 h, then mixed with NK cells 5:1 for 4 hours, CFSE+PI+ tumor cells, read-out: k562 inhibition rate (%)
Description: as §2

[5] = system: A549 cells; test: Anti-tumor activity of NK cells activated by compounds, A549 (CFSE/PI flow cytometry); type: cell-based; conditions: Homo sapiens, tumor cells treated with 20 μM compound 48 h, then mixed with NK cells 5:1 for 4 hours, CFSE+PI+ tumor cells, read-out: A549 inhibition rate (%)
Description: as §2

[6] = system: k562 cells; test: MTT tumor cell growth inhibition, k562; type: cell-based; conditions: Homo sapiens, 48 h, read-out: Tumors growth-inhibitory activity (IC50) k562
Description: as §1

[7] = system: HpeG-2 cells; test: MTT tumor cell growth inhibition, HpeG-2; type: cell-based; conditions: 48 h, read-out: Tumors growth-inhibitory activity (IC50) HpeG-2
Description: as §1

[8] = system: Lovo cells; test: Anti-tumor activity of NK cells activated by compounds, Lovo (CFSE/PI flow cytometry); type: cell-based; conditions: Homo sapiens, tumor cells treated with 20 μM compound 48 h, then mixed with NK cells 5:1 for 4 hours, CFSE+PI+ tumor cells, read-out: Lovo inhibition rate (%)
Description: as §2

[9] = system: Mia-paca2 cells; test: MTT tumor cell growth inhibition, Mia-paca2; type: cell-based; conditions: Homo sapiens, MIA PaCa-2, 48 h, read-out: Tumors growth-inhibitory activity (IC50) Mia-paca2
Description: as §1

[10] = system: A549 cells; test: MTT tumor cell growth inhibition, A549; type: cell-based; conditions: Homo sapiens, 48 h, read-out: Tumors growth-inhibitory activity (IC50) A549
Description: as §1

[11] = system: TNF-α; test: TNF-α activity inhibiting assay (LPS-stimulated peripheral blood, ELISA); type: cell-based, human; conditions: Homo sapiens, compound 20 μM, LPS 10 ng/mL, 6 hours, diluted peripheral blood of healthy volunteers, read-out: TNF-α inhibition rate (%)
Description: Methods: Peripheral blood from healthy volunteers was collected with EDTA anticoagulant tubes. After being diluted 5-fold with 1640 medium (Gibco, USA), the blood was added to 96-well cell culture plates (Costar, USA) and then treated with 10 μL solution of the compound of general formula (I) of the present invention in DMSO (Sigma, USA), the final concentration of the compound was 20 μM with the final concentration of DMSO was 0.2%. After incubation for 60 minutes in an incubator at 37° C. under 5% CO2, 10 μL LPS (Sigma, USA) was added to the reaction system, and the final concentration was 10 ng/mL. After further culturing for 6 hours in the incubator at 37° C. under 5% CO2, the supernatant was collected. The content of TNF-α was determined by ELISA (BD Biosciences, USA). Absorbance was detected at OD450 nm with a microplate reader, with OD 650 nm as reference. The control, a solution containing 0.2% DMSO medium, was as 0% inhibition. Raw data and standard curves were recorded. The four-parameter drug inhibition curve was plotted by XL-fit software and the inhibition rate of each compound was calculated.

[12] = system: Lovo cells; test: MTT tumor cell growth inhibition, Lovo; type: cell-based; conditions: Homo sapiens, 48 h, read-out: Tumors growth-inhibitory activity (IC50) Lovo
Description: as §1

[13] = system: Panc-1 cells; test: Anti-tumor activity of NK cells activated by compounds, Panc-1 (CFSE/PI flow cytometry); type: cell-based; conditions: Homo sapiens, tumor cells treated with 20 μM compound 48 h, then mixed with NK cells 5:1 for 4 hours, CFSE+PI+ tumor cells, read-out: Panc-1 inhibition rate (%)
Description: as §2

Compound	IC50 [1]	IC50 [2]	inhibition at 20 µM [3]	inhibition at 20 µM [4]	inhibition at 20 µM [5]	IC50 [6]	IC50 [7]	inhibition at 20 µM [8]	IC50 [9]	IC50 [10]	inhibition at 20 µM [11]	IC50 [12]	inhibition at 20 µM [13]
O=C1c2ccccc2C(=O)N1C1CC[C@@H]2[C@H]3CCCN4CCC[C@@H](CN2C1=O)[C@@H]34 (some centres unmarked) [GJD 01]	> 100 µM	> 100 µM	> 50%	< 50%	> 50%	50 to 100 µM	50 to 100 µM	≥ 50%	> 100 µM	50 to 100 µM	≥ 50%	50 to 100 µM	< 50%
Nc1cccc2c1C(=O)N(C1CC[C@@H]3[C@H]4CCCN5CCC[C@@H](CN3C1=O)[C@@H]45)C2=O (some centres unmarked) [GJD 02]	< 50 µM	50 to 100 µM	> 50%	> 50%	> 50%	< 50 µM	< 50 µM	> 50%	50 to 100 µM	50 to 100 µM	> 50%	< 50 µM	> 50%
O=C1c2cccc(C(F)(F)F)c2C(=O)N1C1CC[C@@H]2[C@H]3CCCN4CCC[C@@H](CN2C1=O)[C@@H]34 (some centres unmarked) [GJD 07]	50 to 100 µM	50 to 100 µM	> 50%	> 50%	< 50%	50 to 100 µM	50 to 100 µM	> 50%	50 to 100 µM	> 100 µM	> 50%	< 50 µM	> 50%
O=C1c2cccnc2C(=O)N1C1CC[C@@H]2[C@H]3CCCN4CCC[C@@H](CN2C1=O)[C@@H]34 (some centres unmarked) [GJD 15]	–	–	> 50%	< 50%	> 50%	–	–	> 50%	–	–	–	–	> 50%
O=C1[C@H](N2C(=O)c3ccccc3C2=O)CC[C@@H]2[C@H]3CCCN4CCC[C@@H](CN12)[C@@H]34 [GJD 26]	–	–	> 50%	> 50%	> 50%	–	–	> 50%	–	–	–	–	> 50%
O=C1c2cccc([N+](=O)[O-])c2CN1C1CC[C@@H]2[C@H]3CCCN4CCC[C@@H](CN2C1=O)[C@@H]34 (some centres unmarked) [GJD 31]	–	–	> 50%	> 50%	> 50%	–	–	> 50%	–	–	–	–	≥ 50%
O=C1c2ccccc2CN1C1CC[C@@H]2[C@H]3CCCN4CCC[C@H](CN2C1=O)[C@@H]34 (some centres unmarked) [GJD 42]	–	–	> 50%	< 50%	> 50%	–	–	> 50%	–	–	–	–	< 50%
CC(=O)Oc1ccccc1C(=O)NC1CC[C@@H]2[C@H]3CCCN4CCC[C@@H](CN2C1=O)[C@@H]34 (some centres unmarked) [GJD 51]	–	–	> 50%	< 50%	< 50%	–	–	< 50%	–	–	–	–	< 50%
O=C(NC1CC[C@@H]2[C@H]3CCCN4CCC[C@@H](CN2C1=O)[C@@H]34)c1cc(Cl)ccc1O (some centres unmarked) [GJD 55]	50 to 100 µM	> 100 µM	< 50%	< 50%	< 50%	50 to 100 µM	< 50 µM	< 50%	50 to 100 µM	< 50 µM	–	50 to 100 µM	> 50%
Nc1cccc2c1C(=O)N(C1CC[C@@H]3[C@H]4CCC[N+]5([O-])CCC[C@@H](CN3C1=O)[C@@H]45)C2=O (some centres unmarked) [GJD 63]	–	–	> 50%	> 50%	> 50%	–	–	> 50%	–	–	–	–	> 50%
O=C1CCC[C@@H]2[C@H]3CCCN4CCC[C@@H](CN12)[C@@H]34 [Matrine, matrine]	> 100 µM	> 100 µM	–	–	–	> 100 µM	50 to 100 µM	–	> 100 µM	> 100 µM	< 50%	50 to 100 µM	–
